Molecular target: T1, endogenous CTSK in intact U-2 OS cells (Homo sapiens, UniProt P43235)
T1 construct: ability to label endogenous CTSK activity in intact cells; endogenous in cells; host or cells: U-2 OS
T1 sequence (P43235 115-329): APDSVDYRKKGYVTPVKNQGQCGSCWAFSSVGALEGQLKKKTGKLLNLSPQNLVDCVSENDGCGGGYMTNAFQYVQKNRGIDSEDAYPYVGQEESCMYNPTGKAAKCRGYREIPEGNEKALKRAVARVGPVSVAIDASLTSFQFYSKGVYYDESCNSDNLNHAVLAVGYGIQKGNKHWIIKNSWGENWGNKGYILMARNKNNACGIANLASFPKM
Assay: Labeling of endogenous CTSK in intact cells, fluorescent SDS-PAGE
Type: cell-based
Procedure: To test probe selectivity and the ability to label endogenous CTSK activity in intact cells, three cell lines were selected: human osteosarcoma MG‐63 and U‐2 OS, and human glioblastoma U‐87 MG; all cell lines express CTSK along with other lysosomal cathepsins.^[ [44] ^] First, the ABPs were incubated with intact U‐2 OS cells for different durations of time, and the probe selectivity toward CTSK was examined, with a pan cathepsin ABP, GB123, used as a control that labels CTS B, K, L, and S in cells. After cell lysis, the probe‐labeled enzymes were resolved and detected by a fluorescent scan of the SDS‐PAGE. […] Specifically, intact MG‐63 cells required a 5 h incubation (Figure 2b,c), while U‐87 MG cells required a 2 h incubation (Figure 2d).
Figure 2 Labeling of endogenous CTSK in intact cells. a) U2‐OS cells were treated with DMSO or 5 µM of the indicated inhibitors in culture medium, for 2 h, then with indicated ABPs [5 µM] in a culture medium for indicated times, followed by cell lysis, SDS‐PAGE separation, and fluorescent scanning of the gel at 635/670 nm. An immunoblot of CTSK of the same gel is presented below. b) Intact MG63 cells were treated with GD32 5 µM in the culture media for indicated times, cell lysates were analyzed as in a. CTSK immunoblot is presented, pro and mature CTSK are indicated by arrows. c) MG63 cells and d) U87MG cells were treated with DMSO, or 5 µM of indicated inhibitors in culture medium for 2 h, followed by incubation with 5 µM of indicated probes for 5 h (GD32 and GD42) and 2 h (GB123), cell lysates were analyzed by fluorescent SDS PAGE as in a. […] In (c) a CTSK immunoblot of a representative MG63 lane on the right. e) Labeling of active mature CTSK by GD32 in A549 and U2‐0S cells in externally adjusted different pH. Cells were incubated with 5 µM GD32 for 24 h in growth media at indicated pHs, prior to the cell lysis, cell lysates were analysed as in a. CTSK immunoblot below. f) A549 cells were incubated with increasing concentrations of GD30 for 2 h at pH = 5, followed by the incubation with 5 µM GD32 for 24 h prior to the cell lysis, cell lysates were analyzed as in a. g) Intact U‐87 MG cells or U‐87 MG cell lysates were treated with 5 µM GD32 for 2 h, the intact cells were then lysed and all lysates were analyzed as in (a). h) Intact or lysates of U‐87MG were treated with GD32 for 2 h then immunoprecipitation was done with an anti‐CTSK antibody. Input (I), immunoprecipitation (IP), and output (O) were separated by a 14% SDS‐PAGE and scanned for fluorescence. The gel was then blotted and reacted with an anti‐cystatin B antibody below. ODN (Odanacatib), GB111 (GB111‐NH2), mCTSK (mature CTSK). […]
deoxycholate). After adding sample buffer, samples were boiled for 10 minutes, and analyzed […]
lysates were analyzed as described above. […]

Row | SMILES | effect of inhibitor preincubation on GD32-labeled CTSK band (inhibitor 5 µM, 2 h, then GD32 5 µM) | CTSK specificity of labeling (probe 5 µM, incubation up to 24 h)
1 | C#CCNC(=O)[C@H](CC(C)C)N[C@@H](c1ccc(-c2ccc(S(=O)(=O)CCNC(=O)OC(C)(C)C)cc2)cc1)C(F)(F)F [GD30] | depletion of the CTSK‐specific band | –
2 | C#CCNC(=O)[C@H](CC(C)C)N[C@@H](c1ccc(-c2ccc(S(=O)(=O)CCNC(=O)CCCCC[N+]3=C(/C=C/C=C/C=C4/N(C)c5ccc(S(=O)(=O)O)cc5C4(C)C)C(C)(C)c4cc(S(=O)(=O)O)ccc43)cc2)cc1)C(F)(F)F [GD32] | – | retained its CTSK specificity up to 24 h
